Measured values reported in patent US8680113B2, “BMI-1 protein expression modulators” (PTC Therapeutics, Inc., priority 2008, dated 2014).
Each block holds one compound with its values, some of them ahead of it.

Experiments:
Bmi-1 [1] = test: Cell Model Assay: Bmi-1 expression in HT1080; assay type: cell-based, human; conditions: HT1080 (fibrosarcoma)
Method: (§1) Using assay conditions known to those skilled in the art, the ability of the compounds described herein to reduce Bmi-1 expression in HT1080 (fibrosarcoma), U87-MG (glioblastoma), T98G (glioblastoma), K562 (chronic myelogenous leukemia) and KG1 (acute myelogenous leukemia) cell lines was tested (at test compound concentrations calculated from the ELISA assay data shown in Example 1) compared to puromycin as a control to provide the EC50 values shown in Table 2. The term “ND” means that data was not determined.

Bmi-1 [2] = test: Cell Model Assay: Bmi-1 expression in U87-MG; assay type: cell-based; conditions: U87-MG (glioblastoma)
Method: as §1

Bmi-1 [3] = test: Cell Model Assay: Bmi-1 expression in KG1; assay type: cell-based; conditions: KG1 (acute myelogenous leukemia)
Method: as §1

Bmi-1 [4] = test: Cell Model Assay: Bmi-1 expression in T98G; assay type: cell-based; conditions: T98G (glioblastoma)
Method: as §1

Bmi-1 [5] = test: Cell Model Assay: Bmi-1 expression in K562; assay type: cell-based; conditions: K562 (chronic myelogenous leukemia)
Method: as §1

Bmi-1 [6] = test: Sandwich ELISA Assay (Bmi-1 ELISA in HT-1080 cells); assay type: cell-based, human
How it was run: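 Lysate Bmi-1 was quantified against a recombinant GST-Bmi-1 standard (0-8000 pg/mL) by sandwich ELISA read at OD450 with OD570 reference. The ELISA used mouse monoclonal capture, rabbit anti-Bmi-1, HRP anti-rabbit IgG and TMB. Before lysis, HT-1080 cells seeded at 8000/well were exposed to compounds for 40-48 h at 37°C with 0.5% final DMSO.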

MCL-Jeko = test: Mantle Cell Lymphoma Assay: cytotoxicity, Jeko; assay type: cell-based; conditions: MCL-Jeko, 72 hrs
From the text: (§2) MCL cell lines Jeko, Mino, and Rec-1 were provided by American Type Culture Collection: The Bioresource Center (Manassas, Va.). […] Carlsbad, Calif.) in T-75 culture flasks. Cell concentration was maintained between 2 to 3×10^5 cells/mL. Early passage cells (passages 2-4) were used for all experiments. Ficoll-Histopaque density sedimentation (Sigma Aldrich) was used for separation of debris and purification of cell lines prior to experiments. […] The cytotoxic effect of test compounds on the MCL-cell lines was assessed by measuring cell concentration and cell viability using a Beckman Coulter Vi-Cell Counter. Controls and treated cells were harvested and counted at day 3.

MCL-Mino = test: Mantle Cell Lymphoma Assay: cytotoxicity, Mino; assay type: cell-based; conditions: MCL-Mino, 72 hrs
From the text: as §2

MM cell line = test: Multiple Myeloma Assay; assay type: cell-based; conditions: 72 hrs in culture
MCL-Rec1 = test: Mantle Cell Lymphoma Assay: cytotoxicity, Rec-1; assay type: cell-based; conditions: 72 hrs
From the text: as §2

SMILES: COc1ccc(C[C@H](N)C(=O)N[C@H]2[C@@H](O)[C@H](n3cnc4c(N(C)C)ncnc43)O[C@@H]2CO)cc1 [Control, puromycin, reference compound]
EC50 (Bmi-1 [1]): 450 nM | EC50 (Bmi-1 [2]): 420 nM | EC50 (Bmi-1 [3]): 1100 nM | EC50 (Bmi-1 [4]): 230 nM | EC50 (Bmi-1 [5]): 490 nM

SMILES: COc1cc(Br)c(Nc2nc(-c3cnc4ccc(Cl)cn34)cs2)c(Br)c1 [Cpd 24, 4-(6-chloroimidazo[1,2-a]pyridine-3-yl)-N-(2,6-dibromo-4-methoxyphenyl)thiazol-2-amine]
Cell Concentration (×10^6) (MCL-Jeko; 0.004 μM): 1.95 ± 0.04 ×10^6 | Cell Concentration (×10^6) (MCL-Jeko; 0.037 μM): 1.94 ± 0.02 ×10^6 | Cell Concentration (×10^6) (MCL-Jeko; 0.11 μM): 1.92 ± 0.01 ×10^6 | Cell Concentration (×10^6) (MCL-Jeko; 0.33 μM): 1.80 ± 0.03 ×10^6 | Cell Concentration (×10^6) (MCL-Jeko; 1 μM): 0.76 ± 0.27 ×10^6 | Cell Concentration (×10^6) (MCL-Jeko; 3 μM): 0.14 ± 0.01 ×10^6 | Cell Concentration (×10^6) (MCL-Mino; 0.004 μM): 0.63 ± 0.01 ×10^6 | Cell Concentration (×10^6) (MCL-Mino; 0.037 μM): 0.63 ± 0.01 ×10^6 | Cell Concentration (×10^6) (MCL-Mino; 0.11 μM): 0.62 ± 0.01 ×10^6 | Cell Concentration (×10^6) (MCL-Mino; 0.33 μM): 0.55 ± 0.01 ×10^6 | Cell Concentration (×10^6) (MCL-Mino; 1 μM): 0.28 ± 0.02 ×10^6 | Cell Concentration (×10^6) (MCL-Mino; 3 μM): 0.05 ± 0.01 ×10^6 | EC50 (Bmi-1 [1]): 310 nM | Cell Concentration, MM cell line (MM cell line; dose 0.004 μM): 1.37 ± 0.03 ×10^6 | Cell Concentration, MM cell line (MM cell line; dose 0.037 μM): 1.38 ± 0.04 ×10^6 | Cell Concentration, MM cell line (MM cell line; dose 0.11 μM): 1.23 ± 0.01 ×10^6 | Cell Concentration, MM cell line (MM cell line; dose 0.33 μM): 0.59 ± 0.04 ×10^6 | Cell Concentration, MM cell line (MM cell line; dose 1 μM): 0.34 ± 0.14 ×10^6 | Cell Concentration, MM cell line (MM cell line; dose 3 μM): 0.17 ± 0.01 ×10^6 | EC50 (Bmi-1 [3]): 120 nM | Cell Concentration (×10^6) (MCL-Rec1; MCL-Rec1, 0.004 μM): 0.36 ± 0.02 ×10^6 | Cell Concentration (×10^6) (MCL-Rec1; MCL-Rec1, 0.037 μM): 0.34 ± 0.01 ×10^6 | Cell Concentration (×10^6) (MCL-Rec1; MCL-Rec1, 0.11 μM): 0.34 ± 0.01 ×10^6 | Cell Concentration (×10^6) (MCL-Rec1; MCL-Rec1, 0.33 μM): 0.31 ± 0.01 ×10^6 | Cell Concentration (×10^6) (MCL-Rec1; MCL-Rec1, 1 μM): 0.06 ± 0.01 ×10^6 | Cell Concentration (×10^6) (MCL-Rec1; MCL-Rec1, 3 μM): 0.01 ± 0.00 ×10^6 | EC50 (Bmi-1 [5]): 76 nM | IC50 (Bmi-1 [6]): < 500 nM

SMILES: COc1cc(Cl)c(Nc2nc(-c3cnc4ccc(Cl)cn34)cs2)c(Cl)c1 [Cpd 26, 4-(6-chloroimidazo[1,2-a]pyridine-3-yl)-N-(2,6-dichloro-4-methoxyphenyl)thiazol-2-amine]
EC50 (Bmi-1 [3]): 317 nM | EC50 (Bmi-1 [5]): 234 nM | IC50 (Bmi-1 [6]): 1000 to 3000 nM

Continued, values first:

EC50 (Bmi-1 [1]): 39 nM | EC50 (Bmi-1 [2]): 110 nM | EC50 (Bmi-1 [3]): 216 nM | EC50 (Bmi-1 [4]): < 4 nM | EC50 (Bmi-1 [5]): 10 nM | IC50 (Bmi-1 [6]): < 500 nM
SMILES: Cc1nc2ncccn2c1-c1csc(Nc2ccc(N(C)C)cc2)n1 [Cpd 12, N,N-dimethyl-N′-(4-(2-methylimidazo[1,2-a]pyrimidin-3-yl)thiazol-2-yl)benzene-1,4-diamine]

EC50 (Bmi-1 [3]): > 3000 nM | EC50 (Bmi-1 [5]): 100 nM | IC50 (Bmi-1 [6]): < 500 nM
SMILES: Cc1cc(Br)c(Nc2nc(-c3cnc4ccc(Cl)cn34)cs2)c(Br)c1 [Cpd 25, 4-(6-chloroimidazo[1,2-a]pyridine-3-yl)-N-(2,6-dibromo-4-methylphenyl)thiazol-2-amine]
